# Earlier results, collected in patent US20110245352A1, “Composition For Permeabilizing The Walls Of Microorganisms Comprising The Combination Of Ethylenediaminetetraacetic Acid (EDTA) And Polyethyleneimine (PEI)” (Millipore Corporation, priority 2007, published 2011).
# Tested on: gram-positive bacteria
# Details: EDTA taken alone; in particular gram-positive bacteria
compound,measurement,value
"O=C(O)CN(CCN(CC(=O)O)CC(=O)O)CC(=O)O [EDTA, Ethylenediaminetetraacetic acid]",Permeabilization of microorganism walls for labeling of nucleic acids,does not allow satisfactory permeabilization
